{"source": "patent US8747740B2", "about": "“Process and apparatus for generating haloamine biocide” (Hercules Incorporated, priority 2007, dated 2014)", "experiment": "Stability of chloramine in aqueous solution", "type": "physicochemical", "settings": "pH of about 10 to about 11; partially decomposes at higher concentrations or lower pH", "data": [{"smiles": "NCl", "note": "[chloramine, Monochloramine]", "values": [{"measurement": "concentration up to which chloramine is stable", "result": "up to 1,000 ppm"}]}]}
